The text below walks through data of US7560428B2, “Hair growth promoting oligopeptides” (Sumitomo Electric Industries, Ltd., priority 2004, dated 2009).

“Also recorded” adds a separate entry of the source. No end group written: not given here. *: point of attachment. KMUA = N-κ-maleimidoundecanoic acid-derived modifying group bound to a cysteine residue, O=C(O)CCCCCCCCCCN1C(=O)CC(*)C1=O; BMPA = N-β-maleimidopropionic acid-derived modifying group bound to a cysteine residue; Hexanoyl(6-maleimido) = O=C1C=CC(=O)N1CCCCCC(=O)*

The test deals with AHF (antigen recognized by the monoclonal antibody mAb27). Put plainly: Hair growth promoting activity in cultured mouse skin tissue: strength of the mAb27 reaction (AHF band) by Western blot. Type of test: cell-based, ICR baby mice. The conditions noted are these: test oligopeptide 20 μM, skin tissue cultured at 37° C. for 6 days, versus PBS control; FIGS. 4 and 5. An excerpt: The skin tissues of the upper jaw of ICR baby mice with an age of 12 days old were recovered under a stereoscopic microscope. The skin tissues were collected from both the left and right sides of the upper jaw, and the tissues were recovered from the total 5 mice. The skin sections recovered from the 5 mice were divided into the skin sections from the left side (used as a control) and those from the right side (used as a test oligopeptide). Thereafter, 5 skin sections were placed on a single nuclepore membrane (pore size: 8 μm; diameter: 13 mm). The skin sections were observed under a stereoscopic microscope, and the outside thereof was disposed on the front. 500 μl of Dulbecco's MEM/Ham F12 medium containing 1% BSA was added to 2 wells of a 24-well dish. Thereafter, a test oligopeptide solution (solvent: PBS) was added to one well to a final concentration of 20 μM, and only a solvent (PBS) as a control was added at the same amount to the other well. As test oligopeptides, unmodified oligopeptides and modified oligopeptides produced in (1) above were used.
Each of the membranes on which the skin tissues were placed was put on the aforementioned solution filled in the well, and it was then cultured at 37° C. for 6 days. From each membrane, 5 tissue sections were recovered in 100 μl of an SDS sample buffer (0.02 g/ml SDS, 0.2 g/ml glycerol, pH 6.8). The recovered sections were then dissolved therein using an ultrasonic crusher. The control was treated in the same manner. The solution obtained by the aforementioned treatment was electrophoresed (35 mA, 1.5 hours) by SDS-PAGE (acrylamide: 4% to 20%), and it was then transferred to a PVDF membrane. Thereafter, it was incubated in a Tris buffer solution (TBST) containing 5% skimmed milk for 1 hour. Thereafter, the resultant was allowed to react with mAb27 (10 μg/ml in TBST) obtained in Example 2 for 1 hour, and it was then sufficiently washed with TBS. Thereafter, peroxidase-labeled anti-rat IgG (Amersham) was 1,000 times diluted with TBST, and the diluted solution was used as a secondary antibody. The secondary antibody was allowed to react with the above resultant product, and the obtained reaction product was then sufficiently washed. Thereafter, the strength of the reaction of mAb27 was examined using an ECL kit (Amersham).
The term “AHF” shown in FIGS. 4 and 5 represents an antigen recognized by the monoclonal antibody mAb27 (specifically, a protein consisting of 1,439 amino acid residues shown in SEQ ID NO: 11).
As for “Ser-Ile-Glu-Gln-Ser-Xaa-Ala-Gln-Glu (SIEQSC(Hexanoyl(6-maleimido))AQE) [SEQ ID NO: 9]”, the “hair growth activity (thickness of AHF band detected with mAb27)” value (from here on “hair growth activity”) is recorded as “particularly strong hair growth activity”. “Ser-Ile-Glu-Gln-Ser-Xaa-Asp [BMPA] (SIEQSC(BMPA)D)”: the “hair growth activity” value is recorded as “strong hair growth activity”. Under “Ser-Ile-Glu-Gln-Ser-Xaa-Asp [EMCA] (SIEQSC(Hexanoyl(6-maleimido))D)” stands “strong hair growth activity; also recorded: particularly strong”; under “Ser-Ile-Glu-Gln-Ser-Xaa-Asp [KMUA] (SIEQSC(KMUA)D)”, “strong hair growth activity”; under “Ser-Ile-Glu-Gln-Ser-Xaa-Asp-Gln-Asp-Glu (SIEQSC(Hexanoyl(6-maleimido))DQDE) [SEQ ID NO: 8]”, “particularly strong hair growth activity”. As to “Ser-Ile-Glu-Gln-Ser-Xaa-Glu-Gln-Glu (SIEQSC(Hexanoyl(6-maleimido))EQE) [SEQ ID NO: 10]”, the “hair growth activity” value is recorded as “strong hair growth activity”.
